In this test the test system is BDF1 mice, B16 melanoma ip, median survival T/C. Nature of the test: NCI In Vivo Anticancer Drug Screen. Data for tumor model B16 Melanoma (intraperitoneal) in B6D2F1 (BDF1) mice. Particulars: endpoint: median survival time, higher = longer survival. A digest of the protocol: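 Antitumor activity is assessed in mice bearing a transplanted tumor, with survival or tumor size compared against vehicle-dosed controls and expressed as T/C.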

[1] abbreviates: dose: 50.0 mg/kg/injection, schedule: Q01DX009 (ip), vehicle: saline with Tween-80.
The mark [2] stands for this setting: dose: 100.0 mg/kg/injection, schedule: Q01DX009 (ip), vehicle: saline with Tween-80.
Where [3] appears, read: dose: 200.0 mg/kg/injection, schedule: Q01DX009 (ip), vehicle: saline with Tween-80.
Where [4] appears, read: dose: 100.0 mg/kg/injection, schedule: Q01DX009 (ip), vehicle: saline.
The mark [5] stands for this setting: dose: 200.0 mg/kg/injection, schedule: Q01DX009 (ip), vehicle: saline.
The mark [6] stands for this setting: dose: 400.0 mg/kg/injection, schedule: Q01DX009 (ip), vehicle: saline.
[7] abbreviates: dose: 25.0 mg/kg/injection, schedule: Q01DX009 (ip), vehicle: saline.
[8] abbreviates: dose: 50.0 mg/kg/injection, schedule: Q01DX009 (ip), vehicle: saline.
[9] abbreviates: dose: 12.5 mg/kg/injection, schedule: Q01DX009 (ip), vehicle: saline with Tween-80.
Where [10] appears, read: dose: 25.0 mg/kg/injection, schedule: Q01DX009 (ip), vehicle: saline with Tween-80.
Setting [11] is: dose: 100.0 mg/kg/injection, schedule: Q01DX009 (ip), vehicle: Klucel (hydroxypropylcellulose) (HPC).
Setting [12] is: dose: 200.0 mg/kg/injection, schedule: Q01DX009 (ip), vehicle: Klucel (hydroxypropylcellulose) (HPC).
[13] abbreviates: dose: 400.0 mg/kg/injection, schedule: Q01DX009 (ip), vehicle: Klucel (hydroxypropylcellulose) (HPC).
Where [14] appears, read: dose: 12.5 mg/kg/injection, schedule: Q01DX009 (ip), vehicle: saline.

Structures are written as SMILES. Values joined by “and” are separate entries in the source; they are usually repeats but may differ in a detail not shown here. Equal values may be shown once. Toxic doses and inconclusive results are not listed.

In the case of `Cc1ccc(Cl)cc1NS(=O)(=O)c1cccc([N+](=O)[O-])c1`, the T/C is, setting by setting: under setting [1], 111 % of control; under setting [2], 107 % of control; under setting [3], 100 % of control.

Consider `O=C(O)[C@@H]1[C@H](C(=O)O)[C@H](C(=O)O)C[C@@H]1C(=O)O`, for which the T/C under setting [4] is 102 % of control, the T/C under setting [5] is 94 % of control and the T/C under setting [6] is 96 % of control.

Regarding `C1CCN(CCC2CCNCC2)C1`, the T/C under setting [7] is 109 % of control and the T/C under setting [8] was 90 % of control.

For the compound `O=C(O)CC(NC(=O)c1ccccc1)C(=O)O` (configuration not stated), the T/C is 100 % of control (dose: 6.25 mg/kg/injection, schedule: Q01DX009 (ip), vehicle: saline with Tween-80); 102 % of control under setting [9]; 109 % of control under setting [10]; 93 % of control and 100 % of control under setting [1].

Consider `O=[N+]([O-])c1ccc(N=Nc2c(Cl)cc(O)cc2Cl)cc1`, for which the T/C by setting is: under setting [10], 101 % of control; under setting [1], 90 % of control; under setting [2], 88 % of control; under setting [3], 90 % of control.

For `CC(C)CCOC(=O)C(O)c1ccccc1` (configuration not stated), the T/C reads like this: under setting [11], 87 % of control; under setting [12], 93 % of control; under setting [13], 87 % of control.

Take `CCCCOB=O`: the T/C is, setting by setting: under setting [1], 95 % of control; under setting [2], 99 % of control; under setting [3], 89 % of control.

Regarding `CC(=O)Nc1ccc(CCCCc2cccc(C(=N)N)c2)cc1`, the T/C runs as follows: (dose: 2.3 mg/kg/injection, schedule: Q04DX003 (ip), vehicle: saline with Tween-80) 86 % of control; (dose: 4.6 mg/kg/injection, schedule: Q04DX003 (ip), vehicle: saline with Tween-80) 86 % of control; (dose: 9.3 mg/kg/injection, schedule: Q04DX003 (ip), vehicle: saline with Tween-80) 95 % of control; under setting [9], 97 % of control; (dose: 18.75 mg/kg/injection, schedule: Q04DX003 (ip), vehicle: saline with Tween-80) 116 % of control; under setting [10], 97 % of control.

Regarding `CCCCC(=O)N(c1ccc(Nc2c3ccccc3nc3cc([N+](=O)[O-])ccc23)cc1)S(C)(=O)=O`, the T/C runs as follows: (dose: 3.8 mg/kg/injection, schedule: Q01DX009 (ip), vehicle: saline with Tween-80) 102 % of control; (dose: 12.5 mg/kg/injection, schedule: Q01DX001 (ip), vehicle: saline with Tween-80) 122 % of control; (dose: 15.0 mg/kg/injection, schedule: Q01DX009 (ip), vehicle: saline with Tween-80) 120 % of control.

As to `O=C(Nc1ccccc1C(F)(F)F)c1ccc(C(=O)Nc2ccccc2C(F)(F)F)cc1`, the T/C reads like this: (dose: 8.0 mg/kg/injection, schedule: Q01DX009 (ip), vehicle: saline with Tween-80) 88 % of control; (dose: 12.0 mg/kg/injection, schedule: Q01DX009 (ip), vehicle: saline with Tween-80) 90 % of control; under setting [9], 212 % of control; (dose: 18.0 mg/kg/injection, schedule: Q01DX009 (ip), vehicle: saline with Tween-80) 88 % of control; under setting [10], 171 % of control; under setting [1], 156 % of control.

For the compound `c1ccc2c(CC[n+]3cccc(C4OCCO4)c3)c[nH]c2c1`, the T/C was 94 % of control under setting [14], 100 % of control under setting [7] and 100 % of control under setting [8].

Take `CCN(CC)CCN(C)CCN(CC)CC`: the T/C was 100 % of control under setting [8] and 94 % of control under setting [4].

`Cc1cc2nc(-c3ccccc3O)[nH]c2cc1C`: the T/C is, setting by setting: under setting [11], 93 % of control and 94 % of control; under setting [12], 94 % of control and 106 % of control.

In the case of `CC(=O)CC(=O)Nc1cc(Cl)c(NC(=O)CC(C)=O)cc1Cl`, the T/C runs as follows: (dose: 100.0 mg/kg/injection, schedule: Q04DX003 (ip), vehicle: saline with Tween-80) 88 % of control; (dose: 200.0 mg/kg/injection, schedule: Q04DX003 (ip), vehicle: saline with Tween-80) 98 % of control.

For the compound `CCCCCCCCCCCC(c1ccccc1)[N+](C)(C)Cc1ccccc1` (configuration not stated), the T/C was 94 % of control (dose: 0.25 mg/kg/injection, schedule: Q01DX009 (ip), vehicle: saline sonified); 110 % of control (dose: 0.5 mg/kg/injection, schedule: Q01DX009 (ip), vehicle: saline sonified); 105 % of control (dose: 1.0 mg/kg/injection, schedule: Q01DX009 (ip), vehicle: saline sonified); 102 % of control (dose: 2.0 mg/kg/injection, schedule: Q01DX009 (ip), vehicle: saline sonified).

For `COc1cc(Cl)ccc1C`, the T/C is, setting by setting: (dose: 37.5 mg/kg/injection, schedule: Q01DX001 (ip), vehicle: Klucel (hydroxypropylcellulose) (HPC)) 103 % of control; (dose: 75.0 mg/kg/injection, schedule: Q01DX001 (ip), vehicle: Klucel (hydroxypropylcellulose) (HPC)) 182 % of control; (dose: 150.0 mg/kg/injection, schedule: Q01DX001 (ip), vehicle: Klucel (hydroxypropylcellulose) (HPC)) 116 % of control; (dose: 300.0 mg/kg/injection, schedule: Q01DX001 (ip), vehicle: Klucel (hydroxypropylcellulose) (HPC)) 100 % of control.

As to `CNc1nc(N(C)C)nc(N(C)C)n1`, the T/C runs as follows: (dose: 6.25 mg/kg/injection, schedule: Q01DX009 (ip), vehicle: saline) 115 % of control; (dose: 6.25 mg/kg/injection, schedule: Q01DX009 (ip), vehicle: water) 96 % of control and 100 % of control; under setting [14], 111 % of control; (dose: 12.5 mg/kg/injection, schedule: Q01DX009 (ip), vehicle: water) 95 % of control and 102 % of control; under setting [7], 111 % of control; (dose: 25.0 mg/kg/injection, schedule: Q01DX009 (ip), vehicle: water) 94 % of control. In addition, the T/C under setting [8] is 116 % of control; the T/C (dose: 50.0 mg/kg/injection, schedule: Q01DX009 (ip), vehicle: water) was 100 % of control and 118 % of control; the T/C under setting [4] was 116 % of control; the T/C (dose: 100.0 mg/kg/injection, schedule: Q01DX009 (ip), vehicle: water) is 100 % of control and 105 % of control.

With `CCC(C)C1NC(=O)C(NC(=O)c2c3nc4c(C(=O)NC5C(=O)NC(C(C)CC)C(=O)N6CCCC6C(=O)N(C)CC(=O)N(C)C(C(C)C)C(=O)OC5C)cc([N+](=O)[O-])c(C)c4oc-3c(C)c(=O)c2N)C(C)OC(=O)C(C(C)C)N(C)C(=O)CN(C)C(=O)C2CCCN2C1=O` (configuration not stated), the T/C was 110 % of control (dose: 25.0 micrograms/kg/injection, schedule: Q01DX009 (ip), vehicle: water); 119 % of control (dose: 50.0 micrograms/kg/injection, schedule: Q01DX009 (ip), vehicle: water); 124 % of control (dose: 100.0 micrograms/kg/injection, schedule: Q01DX009 (ip), vehicle: water); 160 % of control (dose: 400.0 micrograms/kg/injection, schedule: Q01DX009 (ip), vehicle: water).

`C/C(=N\NC(N)=O)C1=C(O)C(C(C)C)NC1=O` (configuration not stated): the T/C was 91 % of control under setting [1]; 86 % of control under setting [2]; 91 % of control under setting [3]; 91 % of control (dose: 400.0 mg/kg/injection, schedule: Q01DX009 (ip), vehicle: saline with Tween-80).

With `COc1ccc(NC(=O)COc2ccc(Cl)cc2)cc1`, the T/C by setting is: under setting [11], 90 % of control; under setting [12], 100 % of control; under setting [13], 86 % of control.

As for `NC(=S)c1ncn(C2OC(CO)C(O)C2O)c1N` (configuration not stated), the T/C was 107 % of control under setting [14]; 105 % of control under setting [7]; 105 % of control under setting [8]; 102 % of control under setting [4]; 103 % of control under setting [5]; 95 % of control under setting [6].

As to `Nc1cc(N)cc(Cc2ccccc2)c1`, the T/C was 101 % of control (dose: 50.0 mg/kg/injection, schedule: Q01DX009 (ip), vehicle: Klucel (hydroxypropylcellulose) (HPC)); 93 % of control under setting [11]; 100 % of control under setting [12].

On to `CCCCc1c(C)[nH]c(=S)[nH]c1=O`, for which the T/C was 110 % of control under setting [10], 104 % of control under setting [1] and 97 % of control under setting [2].

The values above are taken from PubChem BioAssay AID192 (DTP/NCI, 2004).
